Assay results from patent publication US4772475A, “Controlled-release multiple units pharmaceutical formulation” (Yamanouchi Pharmaceutical Co., Ltd., priority 1985, dated 1988).

Experiments:
α = conditions: cited from earlier work
Solubility in water = type: physicochemical

CCOc1ccccc1OCCNC(C)Cc1ccc(OC)c(S(N)(=O)=O)c1.Cl (centres unmarked) [YM-12617, 5-{2-[2-(o-ethoxyphenoxy)ethylamino]propyl}-2-methoxybenzenesulfonamide hydrochloride]
α-blocking action (α): shows an α-blocking action
solubility (Solubility in water): 3000 to 5000 µg/mL
